Drawing on US11279687B2, “Compounds and compositions for the inhibition of NAMPT” (Valo Health, Inc., priority 2010, dated 2022), this text covers IC50 for 15 compounds.

Where only a bound is given, the exact number is not on record here.

One test addresses NAMPT (Homo sapiens (Human), UniProt P43490). Put plainly: NAMPT biochemical inhibition assay (NMN quantified by mass spectrometry). To be noted: NAMPT biochemical inhibition; read-out: Biochem IC50.
A further test deals with A2780 cells. The test can be described thus: In-vitro cell proliferation assay (SRB), A2780 cells.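 Also: viable cell number read as SRB absorbance, background from media-only wells subtracted, IC50 interpolated from percent inhibition at two bracketing compound concentrations.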 The conditions noted are these: Homo sapiens, A2780, 72 h, A2780 cells, 72 hours, SRB; read-out: A2780 IC50. It is filed as cell-based.

Chain of NAMPT (P43490 whole entry): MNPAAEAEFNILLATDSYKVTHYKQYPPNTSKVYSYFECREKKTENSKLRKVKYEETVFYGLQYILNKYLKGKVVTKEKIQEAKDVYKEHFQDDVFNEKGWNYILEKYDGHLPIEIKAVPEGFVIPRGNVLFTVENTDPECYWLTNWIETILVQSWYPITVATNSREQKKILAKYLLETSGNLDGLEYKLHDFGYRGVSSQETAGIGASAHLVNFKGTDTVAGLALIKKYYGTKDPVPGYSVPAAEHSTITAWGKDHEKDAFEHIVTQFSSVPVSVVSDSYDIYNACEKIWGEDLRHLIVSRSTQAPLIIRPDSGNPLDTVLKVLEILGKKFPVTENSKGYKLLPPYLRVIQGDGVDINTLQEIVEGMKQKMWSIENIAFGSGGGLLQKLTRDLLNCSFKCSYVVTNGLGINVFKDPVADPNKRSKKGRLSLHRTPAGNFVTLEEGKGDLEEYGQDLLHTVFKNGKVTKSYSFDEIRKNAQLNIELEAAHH

As to `Cn1ncc2ccc(S(=O)(=O)c3ccc(NC(=O)NCc4cccnc4)cc3)cc21` [3-[4-(1-methyl-1H-indazole-6-sulfonyl)phenyl]-1-(pyridin-3-ylmethyl)urea], the IC50 – broadly, the concentration needed to halve the response being measured – is 2.5 nM at NAMPT and 35.4 nM with A2780 cells.

On to `Cc1cc(C)n(-c2cccc(S(=O)(=O)c3ccc(NC(=O)NCc4cccnc4)cc3)c2)n1` [3-(4-{[3-(3,5-dimethyl-1H-pyrazol-1-yl)benzene]sulfonyl}phenyl)-1-(pyridin-3-ylmethyl)urea], for which the values for the IC50 on NAMPT and with A2780 cells were 1.6 nM and 15.9 nM, respectively.

As for `CCc1ccccc1S(=O)(=O)c1ccc(NC(=O)NCc2cccnc2)cc1` [3-{4-[(2-ethylbenzene)sulfonyl]phenyl}-1-(pyridin-3-ylmethyl)urea], the IC50 worked out at 2 nM at NAMPT and 169 nM with A2780 cells.

`Cn1ncc2cc(S(=O)(=O)c3ccc(NC(=O)NCc4cccnc4)cc3)ccc21` [3-[4-(1-methyl-1H-indazole-5-sulfonyl)phenyl]-1-(pyridin-3-ylmethyl)urea]: the IC50 on NAMPT came out at 1.8 nM; with A2780 cells, 92.5 nM.

Consider `O=C(NCc1ccc(-n2cccn2)nc1)Nc1ccc(S(=O)(=O)c2ccccc2)cc1` [3-[4-(benzenesulfonyl)phenyl]-1-{[6-(1H-pyrazol-1-yl)pyridin-3-yl]methyl}urea], for which the results for the IC50 at NAMPT and in the test on A2780 cells were 3790 nM and over 10000 nM, respectively.

For the compound `N#Cc1cccc(S(=O)(=O)c2ccc(NC(=O)NCc3cccnc3)cc2)c1` [1-{4-[(3-cyanobenzene)sulfonyl]phenyl}-3-(pyridin-3-ylmethyl)urea], the IC50 at NAMPT was 8 nM; in the test on A2780 cells, 100 to 1000 nM.

As to `COc1ccc(S(=O)(=O)c2ccc(NC(=O)NCc3cccnc3)cc2)cc1OC` [3-{4-[(3,4-dimethoxybenzene)sulfonyl]phenyl}-1-(pyridin-3-ylmethyl)urea], the IC50 at NAMPT turned out to be 5 nM; in the test with A2780 cells, 17 nM.

On to `COc1ccc(S(=O)(=O)c2ccc(NC(=O)NCc3cccnc3)cc2)c(F)c1` [3-{4-[(2-fluoro-4-methoxybenzene)sulfonyl]phenyl}-1-(pyridin-3-ylmethyl)urea], for which the IC50 at NAMPT was determined as 3 nM; with A2780 cells, 311 nM.

As to `O=C(NCc1cccnc1)Nc1ccc(S(=O)(=O)N2CC(F)(F)C2)cc1` [3-[4-(3,3-difluoroazetidine-1-sulfonyl)phenyl]-1-(pyridin-3-ylmethyl)urea], the IC50 at NAMPT is 59 nM; in the test with A2780 cells it was 7860 nM.

Regarding `O=C(NCc1cccnc1)Nc1ccc(S(=O)(=O)c2ccc(C(=O)N3CCCC3)cc2)cc1` [3-(pyridin-3-ylmethyl)-1-[4-({4-[(pyrrolidin-1-yl)carbonyl]benzene}sulfonyl)phenyl]urea], the IC50 at NAMPT was found to be 1.3 nM; with A2780 cells, 7.6 nM.

Consider `COc1ccc(S(=O)(=O)c2ccc(NC(=O)NCc3cccnc3)cc2)cc1F` [3-{4-[(3-fluoro-4-methoxybenzene)sulfonyl]phenyl}-1-(pyridin-3-ylmethyl)urea], for which the IC50 was 2 nM at NAMPT and 173 nM in the test on A2780 cells.

On to `O=C(NCc1cccnc1)Nc1ccc(S(=O)(=O)c2ccc(C(F)(F)F)cc2)cc1` [1-(pyridin-3-ylmethyl)-3-(4-{[4-(trifluoromethyl)benzene]sulfonyl}phenyl)urea], for which the IC50 is 9 nM on NAMPT and 604 nM in the test on A2780 cells.

Consider `O=C(NCc1cccnc1)Nc1ccc(S(=O)(=O)Nc2ccc(N3CCOCC3)c(Cl)c2)cc1` [3-(4-{[3-chloro-4-(morpholin-4-yl)phenyl]sulfamoyl}phenyl)-1-(pyridin-3-ylmethyl)urea], for which the IC50 worked out at 1 nM on NAMPT and 24 nM with A2780 cells.

For `O=C(NCc1cccnc1)Nc1ccc(S(=O)(=O)N2CCNCC2)cc1` [1-[4-(piperazine-1-sulfonyl)phenyl]-3-(pyridin-3-ylmethyl)urea], the IC50 on NAMPT is 48.6 nM; with A2780 cells it was over 2000 nM.

Consider `CCS(=O)(=O)c1cccc(S(=O)(=O)c2ccc(NC(=O)NCc3cccnc3)cc2)c1` [3-(4-{[3-(ethanesulfonyl)benzene]sulfonyl]phenyl)-1-(pyridin-3-ylmethyl)urea], for which the IC50 at NAMPT is 7.6 nM; in the test with A2780 cells, 100 to 1000 nM.
